Measurements as given in patent publication US4419364A, “Bronchospasmolytic carbamate derivatives” (priority 1980, dated 1983).
“And” between values parts separate entries of the source, which are not always exact repeats. Equal values may be shown once. “Also recorded” adds a separate entry of the source. Where a name gives a salt, the structure may show the parent alone. Read-outs that look alike come from different tables or passages of the source.

Columns and labels:
[1] = Duration of serum levels of terbutaline after oral administration of test compounds to unanaesthetized dogs; assay type: in vivo, dogs (Beagle, male); settings: for concentration at 1 h: 1 hour after administration; for concentration at 2 h: 2 hours after administration; for concentration at 3 h: 3 hours after administration; for concentration at 4 h: 4 hours after administration; for concentration at 6 h: 6 hours after administration
Protocol: (§1) Five dogs (Beagle, .male., 13-18 kg) have been used repeatedly in the study. Each dog was used at most once a week. Food was withheld from the animals the night before the experiment (water ad libitum). The test compound was dissolved in 8 ml of distilled water, and delivered into the back of the mouth by use of a syringe and a short tube. This oral supply was followed by a water rinse of 8 ml.
(§2) The blood was collected from the cephalic veins in the forelegs by use of evacuated tubes. The esterase inhibitor diisopropylfluophoshate (DFP) was added, the samples centrifugated (+5°) and the amount of terbutaline in plasma determined by a massfragmentographic analysis method. The serum level of terbutaline indicates the degree of bronchospasmolytic effect of the test compounds.
(§3) The amounts of the test substances to be administered were selected so that the level of terbutaline corresponds to the serum levels obtained and found effective in patients at clinical use, that is a level of terbutaline of at least 2 ng/ml serum for 6 to 8 hours. The doses of the test substances of the invention were selected so that the serum levels of terbutaline obtained would correspond approximately with the serum levels obtained after administration of terbutaline per se.
The test results are given in Table 1 below, where the time course of the serum level of terbutaline in the test animals is given. Each set of serum levels is the result of test in one dog. The boxed time interval represents the interval where a clinically effective serum level of terbutaline is obtained. Thus, the boxed interval represents the clinically useful duration of the test compounds.

[2] = test system: isolated tracheal muscle from guinea-pig; experiment: In vitro test on isolated guinea-pig trachea (relaxation of pilocarpine-contracted trachea); settings: for EC50: Cavia porcellus, pilocarpine-contracted, eserine 1·10^-6 mol/l, read-out: Concentration of test substance producing 50% relaxation of the trachea (EC50)
Protocol: The trachea from guinea-pigs was dissected out, cut spirally and transferred to a 10 ml organ bath containing Krebs solution of 37° and aerated with carbogen. The tracheal strip was contracted by pilocarpine (4·10^-6 mol/l) producing a tension of about 1.5 g. Isometric recording was made by use of a transducer FT03 and Grass polygraph 7D. Before the administration of the test compound the esterase inhibitor eserin was added to the bath in a concentration of 1·10^-6 mol/l. The concentration of the test substances which produces 50% relaxation (EC50) of the pilocarpine contracted trachea was recorded as well as potentiating or inhibiting influence of the test substances of the invention on the relaxing effect of terbutaline. In this last mentioned test the muscle preparation was pretreated with the test compounds during 5 minutes, before the response of terbutaline was recorded.

[3] = test system: histamine-induced bronchospasm in unanaesthetized guinea-pigs; experiment: Protecting effect against histamine-induced bronchospasm after oral administration in guinea-pigs; assay type: in vivo, guinea-pigs (Dunkin-Hartley, male); settings: for ED50: Cavia porcellus, 0.05 h, histamine aerosol, read-out: Dose protecting 50% of the test animals for more than 3 minutes (ED50)
Protocol: Male guinea-pigs, Dunkin-Hartley strain, 150-200 g, were used in the study. The animals were starved for about 15 hours (water ad libitum) before the administration, by a stomach tube, of test compound or vehicle (controls). To establish an adequate time period between administration and histamine exposure, the maximum plasma level of terbutaline produced from the hydrolysis of the given pro-drugs of terbutaline was determined. Thus, blood samples (in pre-experimental series) were collected from guinea-pigs at different times after the administration of the test compound and the plasma level of tarbutaline was determined by a massfragmentographic analysis. A peak in the plasma turbutaline was noted 50-60 minutes after the administration, and this time was selected as time for start of histamine exposure.
The histamine aerosol was generated by Bird inline nebulizers from a solution containing 0.02% histamine-HCl and 3% glycerole. The protecting effect was estimated from the delay in appearance of signs of anoxia in drug-treated animals. […] Drug-treated guinea-pigs without any signs of respiratory influence from the histamine during these first 3 minutes were denoted as protected.

[4] = In vitro test on isolated guinea-pig auricles (chronotropic and inotropic effect); parameters: species or system guinea-pig (Dunkin Hartley, male); settings: guinea pig, isolated auricles; relative values; eserine 1·10^-6 mol/l; read-out: Chronotropic effect on isolated auricle (relative values)
Protocol: (§4) Male guinea-pigs strain Dunkin Hartley (400-500 g) were used. After bleeding and removal of the heart the auricles were dissected free from the ventricular part and submerged into carbogen aerated Krebs solution of 37°. The frequency and force of the spontaneously beating preparation was recorded by a Grass transducer FT03. In the polygraph (Grass 7D) the signals from the isometric transducer passed a trigger function from the drive amplifier to the tachograph to record the rate.
(§5) The esterase inhibitor eserine was added to a concentration of 1·10^-6 mol/l in the organ bath before the drugs to be tested were added. The intrinsic activity of the test compounds on the heart preparation, that is their effect on heart rate (chronotropic effect) and their effect on the force of the heart beats (inotropic effect), and their possible interaction with terbutaline was studied.

[5] = test system: isolated auricles from guinea-pig heart; experiment: as above; parameters: species or system guinea-pig (Dunkin Hartley, male)
Protocol: as §4, §5

[6] = test system: heart rate in dogs; experiment: In vivo test on the effect on the heart rate in dogs; parameters: species or system dogs (Beagle, male); settings: oral; for Slope of the line of increase in heart rate vs. logarithm of corresponding serum conc.: serum conc. of terbutaline; for Slope of the line of increase in heart rate vs. logarithm of corresponding serum conc. / Correlation coefficient (increase in heart rate vs. logarithm of serum conc.): terbutaline 0.01-0.1 mg/kg, test compound 0.3-3 mg/kg
Protocol: as §1, with “solved” for “dissolved”
as §2, with “diisopropylfluophosphate” for “diisopropylfluophoshate”
as §3, with “level of terbutaline, when administered per se, corresponds to” for “level of terbutaline corresponds to”
The heart rate was determined by a stethoscope (the mean of three determinations during a 5-minute periode) before the administration of drug and before each blood sampling.
The relative effect of the test compounds on the heart rate of the test animals was illustrated by plotting in a diagram the increase in heart rate measured at a certain serum concentration of terbutaline versus the logarithm of the said terbutaline concentration in serum. Only values before and up to the maximal increase in heart rate were used. This method will produce a graph consisting of a substantially straight line. When such a line is drawn from each test compound, it can be seen from the slope of the line how the heart rate is correlated to the serum concentration of the test compound.

[7] = cited from earlier work; for Duration of bronchospasmolytic activity, in words: relative to a marketed comparator
[8] = dog, serum, po, 0.03 mg/kg, read-out: Serum level of terbutaline
[9] = dog, serum, po, 0.1 mg/kg, read-out: Serum level of terbutaline

## CN(C)C(=O)Oc1cc(OC(=O)N(C)C)cc(C(O)CNC(C)(C)C)c1 (stereo not shown) [I, 1-[bis-(3',5'-N,N-dimethylcarbamoyloxy)phenyl]-2-N-tert.butylaminoethanol hydrochloride]
[1]; p.o., dogs
  Duration of terbutaline serum level of 2 ng/ml or more: ≥ 16 h
[1]; p.o., dogs, terbutaline 2 ng/ml serum or higher
  Duration of clinically useful serum level relative to terbutaline: at least twice as long
[2]; 5 minutes pretreatment, hydrochloride
  Potentiating or inhibiting effect of the test substance on the bronchodilating effect of terbutaline: none and No potentiating or inhibiting activity
[2]
  EC50: > 20000 nM
[2]; isolated guinea-pig trachea, hydrochloride
  Bronchodilating effect (intrinsic), in words: did not produce any bronchodilating effect; also recorded: did not exert any intrinsic bronchodilating effect
[3]
  ED50: 2.7 mg/kg and 6.7 µmol/kg
[3]; on molar basis, in words
  Bronchospasmolytic potency relative to terbutaline: less potent than the reference substance terbutaline
[4]
  Emax: 0%
[5]; isolated guinea-pig auricles
  Chronotropic or inotropic effect, in words: did not show any chronotropic or inotropic effect
[5]; test compound in same concentration as terbutaline
  Potentiating or inhibiting effect on the chronotropic and inotropic effect of terbutaline: No potentiating or inhibiting effect
[6]; hydrochloride
  Increase in heart rate relative to terbutaline, in words: relatively much lower increase in heart rate than the reference compound terbutaline; also recorded: considerably reduced stimulating effect on the heart rate compared with the heart rate stimulating effect of terbutaline
[6]
  Slope of the line of increase in heart rate vs. logarithm of corresponding serum conc.: 0.63
  Correlation coefficient (increase in heart rate vs. logarithm of serum conc.): 0.9324

## Cc1ccc(C(=O)Oc2ccc(C(O)CNC(C)(C)C)cc2OC(=O)c2ccc(C)cc2)cc1 (stereo not shown) [bitolterol]
[7]
  Duration of bronchospasmolytic activity, in words: comparable with that of salbutamol

## CC(C)(C)NCC(O)c1ccc(O)c(CO)c1 (stereo not drawn) [salbutamol, α-(tert.)-butylaminomethyl-4-hydroxy-m-xylene-α-diolsulphate]
[7]
  Duration of bronchospasmolytic activity, in words: about equal to the duration of terbutaline

## CC(C)(C)NCC(O)c1cc(O)cc(O)c1 (stereo not shown) [terbutaline, 1-(3',5'-dihydroxyphenyl)-2-t-butylaminoethanol sulphate]
[1]; [8]
  concentration at 1 h: 4.8 ng/mL
  concentration at 2 h: 2.9 ng/mL
  concentration at 3 h: 2.4 ng/mL
  concentration at 4 h: 2.2 ng/mL
  concentration at 6 h: 1.9 ng/mL
[1]; [9]
  concentration at 1 h: 5.7 ng/mL
  concentration at 2 h: 13.7 ng/mL
  concentration at 3 h: 9.2 ng/mL
  concentration at 4 h: 6.1 ng/mL
  concentration at 6 h: 3.4 ng/mL
[1]; dog, serum, po, 0.1 mg/kg, 8 hours after administration, read-out: Serum level of terbutaline
  concentration at 8 h: 2.2 ng/mL
[1]; dog, serum, po, 0.1 mg/kg, 12 hours after administration, read-out: Serum level of terbutaline
  concentration at 12 h: 1.1 ng/mL
[1]; dog, serum, po, 0.1 mg/kg, 16 hours after administration, read-out: Serum level of terbutaline
  concentration at 16 h: 0.8 ng/mL
[1]; dog, serum, po, 0.1 mg/kg, 24 hours after administration, read-out: Serum level of terbutaline
  concentration at 24 h: 0.35 ng/mL
[2]
  EC50: 210 ± 50 nM
[3]
  ED50: 0.4 mg/kg and 1.5 µmol/kg
[4]
  Emax: 100%
[5]; relative values, eserine 1·10^-6 mol/l
  Inotropic effect on isolated auricle (relative values): 1.0
[6]
  Slope of the line of increase in heart rate vs. logarithm of corresponding serum conc.: 1.04
  Correlation coefficient (increase in heart rate vs. logarithm of serum conc.): 0.9598
[7]; Hornblad et al. (1976)
  Serum concentration of terbutaline necessary for desired therapeutic activity: at least 2 ng/ml
[7]; normally obtained at clinical use of terbutaline, 2 ng/ml
  Duration of terbutaline serum level at clinical use: about 8 hours
